Laboratory results reported in patent publication US6166072A, “Amino acid derivatives” (Allelix Neuroscience, Inc., priority 1999, dated 2000).

Legend:
GlyT-1C = biological target: T1, GlyT-1C (Homo sapiens, UniProt P48067); test: Glycine uptake by cells transiently transfected with GlyT-1C; assay type: cell-based; conditions: GlyT-1 and GlyT-2 transfected cells
T1 construct: [3H]glycine uptake
T1 sequence (P48067 1-706): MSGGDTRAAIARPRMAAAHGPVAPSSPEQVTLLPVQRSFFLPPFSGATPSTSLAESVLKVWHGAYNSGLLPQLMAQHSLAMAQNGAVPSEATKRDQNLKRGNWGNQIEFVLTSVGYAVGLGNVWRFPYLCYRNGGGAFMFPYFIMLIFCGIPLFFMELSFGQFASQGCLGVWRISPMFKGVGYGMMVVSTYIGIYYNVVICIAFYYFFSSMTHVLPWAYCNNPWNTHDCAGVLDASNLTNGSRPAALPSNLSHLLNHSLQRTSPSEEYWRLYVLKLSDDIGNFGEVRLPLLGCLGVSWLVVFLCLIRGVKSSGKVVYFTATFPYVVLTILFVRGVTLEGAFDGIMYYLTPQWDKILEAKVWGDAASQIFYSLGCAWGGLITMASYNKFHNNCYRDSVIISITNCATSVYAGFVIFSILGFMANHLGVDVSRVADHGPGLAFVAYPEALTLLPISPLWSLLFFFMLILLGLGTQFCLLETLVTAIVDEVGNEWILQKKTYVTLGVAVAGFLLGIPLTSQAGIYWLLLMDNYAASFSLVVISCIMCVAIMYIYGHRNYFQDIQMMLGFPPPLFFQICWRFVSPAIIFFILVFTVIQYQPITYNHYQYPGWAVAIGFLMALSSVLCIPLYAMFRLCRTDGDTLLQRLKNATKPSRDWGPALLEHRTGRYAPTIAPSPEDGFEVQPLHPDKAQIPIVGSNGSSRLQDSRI
Description: (§1) This example illustrates a method for the measurement of glycine uptake by transfected cultured cells.
(§2) Cells transiently transfected with GlyT-1C (see Kim, et al., Molecular Pharmacology, 45, 1994:608-617) and human GlyT-2 (the homolog of the rat GlyT-2 described by Liu et al., J. Biological Chemistry, 268, 1993.22802-22808) were washed three times with HEPES buffered saline (HBS). The cells were then incubated 10 minutes at 37° C., after which a solution containing 50 nM [^3 H]glycine (17.5 Ci/mmol) and either (a) no potential competitor, (b) […] nonradioactive glycine or (c) a concentration of a candidate drug. A range of concentrations of the candidate drug was used to generate data for calculating the concentration resulting in 50% of the effect (e.g., the IC50 's which are the concentration of drug inhibiting glycine uptake by 50%). The cells were then incubated another 10 minutes at 37° C., after which the cells were aspirated and washed three times with ice-cold HBS. The cells were harvested, scintillant was added to the cells, the cells were shaken for 30 minutes, and the radioactivity in the cells was counted using a scintillation counter. Data were compared between the same cells contacted and not contacted by the candidate agent, and between cells having GlyT-1 activity versus cells having GlyT-2 activity, depending on the assay being conducted.

human GlyT-2 = biological target: T2, human GlyT-2 (Homo sapiens, UniProt Q9Y345); test: Glycine uptake by cells transiently transfected with human GlyT-2; assay type: cell-based; conditions: GlyT-2 versus GlyT-1 transfected cells
T2 construct: [3H]glycine uptake
T2 sequence (Q9Y345 1-797): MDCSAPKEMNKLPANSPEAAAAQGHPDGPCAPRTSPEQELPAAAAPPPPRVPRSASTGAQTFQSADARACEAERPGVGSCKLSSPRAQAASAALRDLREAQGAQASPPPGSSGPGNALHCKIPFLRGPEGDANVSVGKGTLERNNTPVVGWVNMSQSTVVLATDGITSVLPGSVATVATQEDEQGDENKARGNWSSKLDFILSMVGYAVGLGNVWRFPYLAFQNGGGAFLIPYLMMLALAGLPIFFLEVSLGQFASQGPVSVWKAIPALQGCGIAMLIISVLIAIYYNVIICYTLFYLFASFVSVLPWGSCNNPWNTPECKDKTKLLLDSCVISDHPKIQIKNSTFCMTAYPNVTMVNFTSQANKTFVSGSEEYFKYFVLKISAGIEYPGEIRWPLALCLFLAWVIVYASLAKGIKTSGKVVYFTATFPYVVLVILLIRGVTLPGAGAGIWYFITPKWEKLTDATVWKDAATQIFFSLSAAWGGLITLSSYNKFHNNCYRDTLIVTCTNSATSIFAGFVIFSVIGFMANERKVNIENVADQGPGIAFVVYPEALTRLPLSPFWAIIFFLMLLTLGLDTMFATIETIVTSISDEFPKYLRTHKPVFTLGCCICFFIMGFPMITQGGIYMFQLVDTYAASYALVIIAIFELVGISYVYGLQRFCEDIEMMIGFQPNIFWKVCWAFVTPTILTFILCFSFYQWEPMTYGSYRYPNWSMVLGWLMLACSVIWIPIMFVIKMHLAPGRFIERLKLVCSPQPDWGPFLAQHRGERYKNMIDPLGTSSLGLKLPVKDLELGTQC
Description: as §1, §2

CCc1ccc(C(SCC(N)C(=O)O)c2cccc(C(F)(F)F)c2)cc1CC (racemic) [S-(3,4-Diethyl-3'-trifluoromethyidiphenyl)methyl-D,L-cysteine]
mixed GlyT-1/GlyT-2 activity (GlyT-1C): mixed GlyT-1/GlyT-2 activity

CCc1ccc(C(SC(C)(C)C(N)C(=O)O)c2ccccc2F)cc1CC (racemic) [S-(3,4-Diethyl-2'-fluorodiphenyl)methyl-D,L-dimethylcysteine]
selectivity for inhibition of glycine transport via GlyT-2 versus GlyT-1 (human GlyT-2): selectivity for the inhibition of glycine transport via GlyT-2 versus GlyT-1

CCc1ccc(C(SCC(N)C(=O)O)c2cccc(F)c2)cc1CC (racemic) [S-(3,4-Diethyl-3'-fluorodiphenyl)methyl-D,L-cysteine]
mixed GlyT-1/GlyT-2 activity (GlyT-1C): mixed GlyT-1/GlyT-2 activity

CC(C)(C)c1ccc(C(SCCC(N)C(=O)O)c2ccccc2)cc1 (racemic) [S-(4'-Butyidiphenyl)methyl-D,L-homocysteine]
mixed GlyT-1/GlyT-2 activity (GlyT-1C): mixed GlyT-1/GlyT-2 activity

NC(CSC(c1ccc2c(c1)CCCC2)c1ccc(F)cc1F)C(=O)O (racemic) [S-[α-(5,6,7,8-Tetrahydronaphth-2-yl)-α-(2,4-difluorophenyl)]methyl-D,L-cysteine]
selectivity for inhibition of glycine transport via GlyT-2 versus GlyT-1 (human GlyT-2): selectivity for the inhibition of glycine transport via GlyT-2 versus GlyT-1

Cc1ccc(C(SCC(N)C(=O)O)c2ccc(C)cc2)cc1 (racemic) [S-(4,4'-Dimethyldiphenyl)methyl-D,L-cysteine]
selectivity for inhibition of glycine transport via GlyT-2 versus GlyT-1 (human GlyT-2): selectivity for the inhibition of glycine transport via GlyT-2 versus GlyT-1

CCc1ccc(C(SCC(N)C(=O)O)c2ccc([N+](=O)[O-])cc2)cc1CC (racemic) [S-(3,4-Diethyl-4'-nitrodiphenyl)methyl-D,L-cysteine]
selectivity for inhibition of glycine transport via GlyT-2 versus GlyT-1 (human GlyT-2): selectivity for the inhibition of glycine transport via GlyT-2 versus GlyT-1

CCCc1ccc(C(SCC(N)C(=O)O)c2ccc(F)cc2F)cc1 (racemic) [S-(2,4-Difluoro-4'-^npropyldiphenyl)methyl-D,L-cysteine]
mixed GlyT-1/GlyT-2 activity (GlyT-1C): mixed GlyT-1/GlyT-2 activity

CCc1ccc(C(SCC(N)C(=O)O)c2ccc(F)cc2F)cc1CC (racemic) [S-(3,4-Diethyl-2',4'-difluorodiphenyl)methyl-D,L-cysteine]
selectivity for inhibition of glycine transport via GlyT-2 versus GlyT-1 (human GlyT-2): selectivity for the inhibition of glycine transport via GlyT-2 versus GlyT-1

CCc1ccc(C(SC(C)(C)C(N)C(=O)O)c2ccc(F)cc2)cc1CC (racemic) [S-(3,4-Diethyl-4-fluorodiphenyl)methyl-D,L-dimethylcysteine]
mixed GlyT-1/GlyT-2 activity (GlyT-1C): mixed GlyT-1/GlyT-2 activity

NC(CSC(c1ccc(F)cc1)c1ccccc1-c1ccccc1)C(=O)O (racemic) [S-(4-Fluoro-2'-phenyldiphenyl)methyl-D,L-cysteine]
selectivity for inhibition of glycine transport via GlyT-2 versus GlyT-1 (human GlyT-2): selectivity for the inhibition of glycine transport via GlyT-2 versus GlyT-1

Cc1ccc(C(SCC(N)C(=O)O)c2ccc(C)s2)s1 (racemic) [S-[α,α-Bis(5-methyl-2-thienyl)]methyl-D,L-cysteine]
selectivity for inhibition of glycine transport via GlyT-2 versus GlyT-1 (human GlyT-2): selectivity for the inhibition of glycine transport via GlyT-2 versus GlyT-1
